Here are results for 24 compounds from US10370366B2 (Flatley Discovery Lab, LLC, priority 2013, dated 2019).

As a reminder, the EC50 is the concentration giving half of the maximal effect.

This experiment has as its target T1, human F508del CFTR (Homo sapiens, UniProt P13569, DEL508-508).
T1 construct: expressed in transfected cells; host or cells: Fisher Rat Thyroid (FRT) cells
The experiment is described as follows: CFTR-YFP High Throughput Assay. Format: cell-based. The conditions noted are these: FRT cells expressing human F508del CFTR and YFP; for Emax: EMax normalized to the positive control, read-out: % Efficacy. On the procedure:
Assays for Detecting and Measuring the Effect of Compounds on F508del-CFTR Channels CFTR-YFP High Throughput Assay-CFTR Corrector Protocol:
This protocol is designed to selectively screen small molecule compounds for F508del CFTR corrector activities in the HTS YFP (yellow fluorescent protein) flux assay. In this protocol, the cells are incubated with testing compounds for 24 hours, washed with PBS, stimulated with forskolin and a standard potentiator, and fluorescence in each plate well is measured kinetically read on a 384-well HTS plate reader, such as the Hamamatsu FDSS-6000.
YFP fluorescence intensity values are acquired at high speed before and after iodide buffer is injected to the assay cells. Iodide enters the cells via active CFTR channels in the plasma membrane, and quenches the YFP fluorescence. The rate of fluorescence quenching is proportionate to the total CFTR activity in the cell membrane. F508del CFTR correctors increase the number of CFTR molecules in the testing cell plasma membrane, and thereby accelerate YFP quenching.
This method was initially developed for bench top plate readers (Galietta et al., 2001), and was adapted to the HTS format (Sui et al. Assay Drug Dev. Technol. 2010).
Fisher Rat Thyroid (FRT) cells stably expressing both human F508del CFTR and a halide-sensitive yellow fluorescent protein (YFP-H148Q/I152L 25,22) (Galietta et al. Am. J. Physiol Cell Physiol 281(5), C1734, 2001) were cultured on plastic surface in Coon's modified Ham's F12 medium supplemented with FBS 10%, L-glutamine 2 mM, penicillin 100 U/ml, and streptomycin 100 µg/ml. G418 (0.75-1.0 mg/ml) and zeocin (3.2 ug/ml) were used for selection of FRT cells expressing F508del CFTR and YFP. For primary screening, FRT cells were plated into 384-well black wall, transparent bottom microtiter plates (Costar; Corning Inc.) at a cell density of 20,000-40,000 per well. Test compound was applied to the cells at varying concentrations ranging from 2 nM-40 μM in either a 2-fold or 3-fold dilution series. Cells were incubated in a cell culture incubator at 37° C. with 5% CO2 for 24-26 h. Assay plates were washed with DPBS media (Thermo, cat# SH30028.02) to remove unbound cells and compound. Stimulation media (25 μL) containing 20 μM Forskolin & 30 μM P3 [6-(Ethyl-phenyl-sulfonyl)-4-oxo-1,4-dihydro-quinoline-3-carboxylic acid 2-methoxy-benzylamide] in Hams F-12 coon's modified media was added to the plate wells and incubated at room temperature for 60-120 min. […] (10 mM HEPES, 1 mM MgCl2, 3 mM KCl, 1 mM CaCl2, 150 mM NaI) was then added and fluorescence quench curves (Excitation 500 nm/Emission 540 nm; exposure 136 ms) were immediately recorded on an FDSS-6000 plate reader (Hamamatsu). Quench rates were derived from least squares fitting of the data as described by Sui et al (2010).
CFTR-YFP High Throughput Assay-CFTR Potentiator Protocol:
This protocol is designed to selectively screen small molecule compounds for F508del CFTR potentiator activities in the HTS YFP flux assay. Such compounds act acutely to stimulate CFTR already expressed on the membrane surface. In this protocol, the cells are incubated at 27° C. for 24 hours to homogeneously boost F508del CFTR expression in the cell membrane (low temperature correction), washed with PBS, treated with test compound, and CFTR activity is stimulated with forskolin for 1-2 hr. Measurement of ion flux is initiated by addition of iodide-containing buffer, and YFP quenching is kinetically recorded using a 384-well HTS plate reader, such as the Hamamatsu FDSS-6000.
YFP fluorescence intensity values are acquired at high speed over a 1 min time course before and after iodide buffer is injected to the assay cells. Iodide enters the cells via active CFTR channels in the plasma membrane, and quenches the YFP fluorescence. The rate of fluorescence quenching is proportionate to total CFTR activity in the cell membrane. […]

T1 sequence (P13569 with tags, fused parts or gaps DEL508-508): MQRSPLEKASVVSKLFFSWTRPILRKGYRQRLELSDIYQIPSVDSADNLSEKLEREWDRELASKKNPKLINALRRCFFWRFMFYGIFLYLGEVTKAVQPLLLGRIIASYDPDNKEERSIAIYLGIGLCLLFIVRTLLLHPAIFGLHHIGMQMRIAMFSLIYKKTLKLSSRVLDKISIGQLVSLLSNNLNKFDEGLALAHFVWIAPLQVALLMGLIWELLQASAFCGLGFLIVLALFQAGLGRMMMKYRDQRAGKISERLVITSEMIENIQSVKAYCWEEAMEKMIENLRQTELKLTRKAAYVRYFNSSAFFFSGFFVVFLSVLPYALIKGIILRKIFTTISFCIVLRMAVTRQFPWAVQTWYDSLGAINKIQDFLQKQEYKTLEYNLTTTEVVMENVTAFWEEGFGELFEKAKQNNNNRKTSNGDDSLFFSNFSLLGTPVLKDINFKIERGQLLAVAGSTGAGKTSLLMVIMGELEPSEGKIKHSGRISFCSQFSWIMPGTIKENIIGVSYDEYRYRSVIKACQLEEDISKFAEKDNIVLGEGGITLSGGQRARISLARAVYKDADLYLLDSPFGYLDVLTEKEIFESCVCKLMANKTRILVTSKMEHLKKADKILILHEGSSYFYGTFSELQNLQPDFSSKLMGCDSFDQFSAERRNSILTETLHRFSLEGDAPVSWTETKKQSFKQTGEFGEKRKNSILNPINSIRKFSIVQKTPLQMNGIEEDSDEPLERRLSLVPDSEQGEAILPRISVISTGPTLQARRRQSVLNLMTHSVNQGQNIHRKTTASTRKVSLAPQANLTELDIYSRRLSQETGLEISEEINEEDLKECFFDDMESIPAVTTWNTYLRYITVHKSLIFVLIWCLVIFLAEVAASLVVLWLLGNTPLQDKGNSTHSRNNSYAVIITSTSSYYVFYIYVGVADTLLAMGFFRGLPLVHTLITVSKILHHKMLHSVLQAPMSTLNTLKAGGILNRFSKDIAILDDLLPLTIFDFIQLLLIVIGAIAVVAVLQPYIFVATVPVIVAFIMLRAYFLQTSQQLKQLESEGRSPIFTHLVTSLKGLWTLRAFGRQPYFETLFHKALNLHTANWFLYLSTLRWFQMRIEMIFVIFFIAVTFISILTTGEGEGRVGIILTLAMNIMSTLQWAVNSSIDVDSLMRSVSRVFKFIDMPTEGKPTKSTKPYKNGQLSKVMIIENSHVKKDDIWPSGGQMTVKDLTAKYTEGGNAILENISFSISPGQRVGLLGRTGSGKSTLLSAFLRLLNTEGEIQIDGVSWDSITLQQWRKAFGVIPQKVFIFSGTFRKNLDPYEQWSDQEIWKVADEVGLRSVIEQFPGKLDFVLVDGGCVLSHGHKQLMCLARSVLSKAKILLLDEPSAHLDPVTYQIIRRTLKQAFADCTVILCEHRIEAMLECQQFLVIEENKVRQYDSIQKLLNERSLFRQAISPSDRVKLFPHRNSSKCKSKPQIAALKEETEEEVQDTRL

Take `CCc1ccc(N(CC)C(=O)Cn2nc(Cc3cccnc3)c3ccccc3c2=O)cc1` [Example 25, N-ethyl-N-(4-ethylphenyl)-2-(1-oxo-4-(pyridin-3-ylmethyl)phthalazin-2(1H)-yl)acetamide]: the Emax lay within 30 to 80% and the concentration giving a half-maximal response (EC50) fell in the range of 10 to 20 µM.
Consider `CCN(C(=O)Cn1nc(Cc2cccnc2)c2ccccc2c1=O)c1ccc2c(c1)OC(F)(F)O2` [Example 26, N-(2,2-difluorobenzo[d][1,3]dioxol-5-yl)-N-ethyl-2-(1-oxo-4-(pyridin-3-ylmethyl)phthalazin-2(1H)-yl)acetamide], for which the Emax lay within 30 to 80%.
As to `COc1ccc(N(C)C(=O)Cn2nc(Cc3cccnc3)c3ccccc3c2=O)cc1` [Example 27, N-(4-methoxyphenyl)-N-methyl-2-(1-oxo-4-(pyridin-3-ylmethyl)phthalazin-2(1H)-yl)acetamide], the Emax was 30 to 80%.
Regarding `CCc1ccc(N(CC)C(=O)Cn2nc(Cc3cccnc3)c3ccc(C)cc3c2=O)cc1` [Example 28, N-ethyl-N-(4-ethylphenyl)-2-(7-methyl-1-oxo-4-(pyridin-3-ylmethyl)phthalazin-2(1H)-yl)acetamide], the Emax was in the range of 30 to 80%.
`CCc1ccc(N(CC)C(=O)Cn2nc(Cc3cccnc3)c3cc(C)ccc3c2=O)cc1` [Example 29, N-ethyl-N-(4-ethylphenyl)-2-(6-methyl-1-oxo-4-(pyridin-3-ylmethyl)phthalazin-2(1H)-yl)acetamide]: the Emax lay within 30 to 80%.
For the compound `CCc1ccc(N(CC)C(=O)Cn2nc(Cc3cccnc3)c3cccc(C)c3c2=O)cc1` [Example 30, N-ethyl-N-(4-ethylphenyl)-2-(8-methyl-1-oxo-4-(pyridin-3-ylmethyl)phthalazin-2(1H)-yl)acetamide], the Emax lay within 30 to 80%.
Regarding `CCc1ccc(N(CC)C(=O)Cn2nc(Cc3cccnc3)c3c(C)cccc3c2=O)cc1` [Example 31, N-ethyl-N-(4-ethylphenyl)-2-(5-methyl-1-oxo-4-(pyridin-3-ylmethyl)phthalazin-2(1H)-yl)acetamide], the Emax fell in the range of 30 to 80%.
The same measure, in the same setting: with `CCc1ccc(N(CC)C(=O)Cn2nc(Cc3cccnc3)c3cc(OC)c(OC)cc3c2=O)cc1` [Example 32, 2-(6,7-dimethoxy-1-oxo-4-(pyridin-3-ylmethyl)phthalazin-2(1H)-yl)-N-ethyl-N-(4-ethylphenyl)acetamide] the figure was 10 to 30%.
`CCc1ccc(N(CC)C(=O)Cn2nc(Cc3cccnc3)c3ccc(C(C)(C)C)cc3c2=O)cc1` [Example 33, 2-(7-(tert-butyl)-1-oxo-4-(pyridin-3-ylmethyl)phthalazin-2(1H)-yl)-N-ethyl-N-(4-ethylphenyl)acetamide]: the Emax lay in the range of 30 to 80%.
In the case of `CCc1ccc(N(CC)C(=O)Cn2nc(Cc3cccnc3)c3cc(C(C)(C)C)ccc3c2=O)cc1` [Example 34, 2-(6-(tert-butyl)-1-oxo-4-(pyridin-3-ylmethyl)phthalazin-2(1H)-yl)-N-ethyl-N-(4-ethylphenyl)acetamide], the Emax was 30 to 80%.
On to `CCc1ccc(N(CC)C(=O)Cn2nc(Cc3cccnc3)c3ccc(OC)cc3c2=O)cc1` [Example 35, N-ethyl-N-(4-ethylphenyl)-2-(7-methoxy-1-oxo-4-(pyridin-3-ylmethyl)phthalazin-2(1H)-yl)acetamide], for which the Emax fell in the range of 30 to 80%.
On to `CCc1ccc(N(CC)C(=O)Cn2nc(Cc3cccnc3)c3cc(OC)ccc3c2=O)cc1` [Example 36, N-ethyl-N-(4-ethylphenyl)-2-(6-methoxy-1-oxo-4-(pyridin-3-ylmethyl)phthalazin-2(1H)-yl)acetamide], for which the Emax was 30 to 80%.
Still for that read-out and setting: with `CCc1ccc(N(CC)C(=O)Cn2nc(Cc3cccnc3)c3cccc(F)c3c2=O)cc1` [Example 37, N-ethyl-N-(4-ethylphenyl)-2-(8-fluoro-1-oxo-4-(pyridin-3-ylmethyl)phthalazin-2(1H)-yl)acetamide] the figure was 30 to 80%.
As to `CCc1ccc(N(CC)C(=O)Cn2nc(Cc3cccnc3)c3cc(Cl)c(Cl)cc3c2=O)cc1` [Example 38, 2-(6,7-dichloro-1-oxo-4-(pyridin-3-ylmethyl)phthalazin-2(1H)-yl)-N-ethyl-N-(4-ethylphenyl)acetamide], the Emax is 30 to 80% and the concentration giving a half-maximal response (EC50) was less than 10 µM.
The corresponding values for `CCc1ccc(N(CC)C(=O)Cn2nc(Cc3cccnc3)c3ccc(Cl)cc3c2=O)cc1` [Example 39, 2-(7-chloro-1-oxo-4-(pyridin-3-ylmethyl)phthalazin-2(1H)-yl)-N-ethyl-N-(4-ethylphenyl)acetamide] are 30 to 80% and more than 20 µM.
With `CCc1ccc(N(CC)C(=O)Cn2nc(Cc3cccnc3)c3cc(Cl)ccc3c2=O)cc1` [Example 40, 2-(6-chloro-1-oxo-4-(pyridin-3-ylmethyl)phthalazin-2(1H)-yl)-N-ethyl-N-(4-ethylphenyl)acetamide], the Emax is 30 to 80%.
In the case of `CCc1ccc(N(CC)C(=O)Cn2nc(Cc3cccnc3)c3ccncc3c2=O)cc1` [Example 41, N-ethyl-N-(4-ethylphenyl)-2-(4-oxo-1-(pyridin-3-ylmethyl)pyrido[3,4-d]pyridazin-3(4H)-yl)acetamide], the Emax lay in the range of 30 to 80% and the concentration giving a half-maximal response (EC50) is less than 10 µM.
Consider `CCc1ccc(N(CC)C(=O)Cn2nc(Cc3cccnc3)c3cnccc3c2=O)cc1` [Example 42, N-ethyl-N-(4-ethylphenyl)-2-(1-oxo-4-(pyridin-3-ylmethyl)pyrido[3,4-d]pyridazin-2(1H)-yl)acetamide], for which the Emax lay in the range of 10 to 30%.
As for `CCc1ccc(N(CC)C(=O)Cn2nc(Cc3cccnc3)c3ncccc3c2=O)cc1` [Example 43, N-ethyl-N-(4-ethylphenyl)-2-(5-oxo-8-(pyridin-3-ylmethyl)pyrido[2,3-d]pyridazin-6(5H)-yl)acetamide], the Emax lay within 10 to 30% and the concentration giving a half-maximal response (EC50) was more than 20 µM.
For the compound `CCN(C(=O)Cn1nc(Cc2cccnc2)c2cc(OC)c(OC)cc2c1=O)c1ccc2c(c1)OC(F)(F)O2` [Example 44, N-(2,2-difluorobenzo[d][1,3]dioxol-5-yl)-2-(6,7-dimethoxy-1-oxo-4-(pyridin-3-ylmethyl)phthalazin-2(1H)-yl)-N-ethylacetamide], the Emax lay within 30 to 80% and the EC50 lay within 10 to 20 µM.
Turning to `CCN(C(=O)Cn1nc(Cc2cccnc2)c2ccc(C)cc2c1=O)c1ccc2c(c1)OC(F)(F)O2` [Example 45, N-(2,2-difluorobenzo[d][1,3]dioxol-5-yl)-N-ethyl-2-(7-methyl-1-oxo-4-(pyridin-3-ylmethyl)phthalazin-2(1H)-yl)acetamide], the Emax was more than 80%.
Take `CCN(C(=O)Cn1nc(Cc2cccnc2)c2cc(C)ccc2c1=O)c1ccc2c(c1)OC(F)(F)O2` [Example 46, N-(2,2-difluorobenzo[d][1,3]dioxol-5-yl)-N-ethyl-2-(6-methyl-1-oxo-4-(pyridin-3-ylmethyl)phthalazin-2(1H)-yl)acetamide]: the Emax lay within 30 to 80%.
Same read-out and setting: then `CCN(C(=O)Cn1nc(Cc2cccnc2)c2cccc(C)c2c1=O)c1ccc2c(c1)OC(F)(F)O2` [Example 47, N-(2,2-difluorobenzo[d][1,3]dioxol-5-yl)-N-ethyl-2-(8-methyl-1-oxo-4-(pyridin-3-ylmethyl)phthalazin-2(1H)-yl)acetamide], with 30 to 80%; and `CCN(C(=O)Cn1nc(Cc2cccnc2)c2c(C)cccc2c1=O)c1ccc2c(c1)OC(F)(F)O2` [Example 48, N-(2,2-difluorobenzo[d][1,3]dioxol-5-yl)-N-ethyl-2-(5-methyl-1-oxo-4-(pyridin-3-ylmethyl)phthalazin-2(1H)-yl)acetamide], with 30 to 80%.
